Results on ten compounds are retold here after patent US20050164903A1, “Complexed surfactant system” (priority 2001, published 2005).

A short description of data set [1]: Phase stability (appearance) of sample solutions. Particulars: for Phase stability (appearance of sample solution): 1% aqueous solution.
Source text: Concentration of a mixed system was controlled to 2% aqueous solution, and a mixing ratio of SLS and the cationic compound was controlled to 1:1 by mole ratio so that changes in physical properties could be remarkably shown (Table 1).
The nature of data set [2]: Foaming property (initial foamability and foam stability), semi-micro TK method. Particulars: 1% solution. The data set is classed as physicochemical. An excerpt:
As samples for measuring initial foamability and foam stability, samples prepared under the same conditions as those used for measuring Krafft point were used (Table 14). […] The semi-micro TK method was used for measurement, and mean values were taken after measuring three times.
The tests were repeated three times and a mean value was taken.
Experiments were repeated three times, and a mean value was taken. For the experiment, a 1% aqueous solution was used.

A short description of data set [3]: Surface tension and cmc, Kruss tensiometer K12. The data set is classed as physicochemical. As to the method: Samples of which surface tensions were to be measured were prepared by mixing SLS and a cationic compound in a mole ratio of 1:1, wherein deionized water was used as water, and a container for measurement was immersed in a cleaning solution for more than 3 hours, washed with water and acetone, dried in an oven, and then used.
A ring method was used, and after measuring 5 times, a mean value was taken. Solutions of 1%, 0.1%, 0.01%, and 0.001% by weight ratio of each of the cationic compounds were prepared to use for the tests.

Data set [4] in a line: Stability to hard water (10,000 ppm CaCl2 hard water added until cloudiness). The data set is classed as physicochemical. Particulars: for Precipitation in hard water: 0.5% (weight ratio), 100 ml sample. As to the method: After dissolving 11.69 g of CaCl2.2H2O in 1 liter of water to prepare hard water of 10,000 ppm, it was slowly added to a 0.5% aqueous solution sample, and stability to hard water was evaluated using the amount of hard water added until cloudiness began.
Hard water of 10,000 ppm prepared by dissolving 11.69 g of CaCl2.2H2O in 1 L of water was used for the tests. Stability to hard water was measured by adding hard water until pearl is appear, using 0.5% (weight ratio) of the cationic compound and 100 ml of the sample. This test was repeated by three times, and a mean value was taken.
Hard water at a 10,000 ppm concentration prepared by dissolving 11.69 g of CaCl2.2H2O in 1 L of water was used for the experiments. […] The tests were repeated by three times, and a mean value was measured.

Data set [5] in a line: Measurement of Krafft point (cloudiness on cooling, transparency on re-heating). The data set is classed as physicochemical. Particulars: 1% solution. As to the method:
In the Krafft point test, the temperature when the solution clouded through the previous test becomes transparent again while elevating the temperature were measured.
The temperature when cloudiness begins was measured while cooling the transparent cationic compound solution (condition of lowering temperature). Additionally, the temperature when the solution becomes transparent was measured while elevating the temperature of the cloudy solution (condition of elevating temperature).
Also, while elevating the temperature of the clouded solution, temperatures when the solutions became transparent again were measured (condition when elevating temperature).

The nature of data set [6]: Solubility noted for synthesized compounds. The data set is classed as physicochemical. Particulars: noted with the synthesis.

Values joined by “and” are separate entries in the source; they are usually repeats but may differ in a detail not shown here. Equal values may be shown once. “Also recorded” adds a separate entry of the source.

“1.6-12-(N,N-methyloctylamino)ethanollhexane [Synthesis Example 17]”: in data set [1], the “Phase stability (appearance of sample solution)” value (from here on “Phase stability”) is reported as “cloudiness”. Further, in data set [1] (cationic compound in water), the “Concentration at which the solution became transparent” value is given as 0.1 wt %. The “Foaming property, result in words” value in data set [2] was “No foaming”. In addition, the Surface tension in data set [3] (concentration 0.01%) was determined as 47.50 mN/m; in data set [3] (concentration 0.1%) it was 33.90 mN/m; in data set [3] (concentration 1%), 27.91 mN/m.

Regarding `CCCCCCCCCCCCOS(=O)(=O)[O-].[Na+]` [SLS, sodium lauryl sulfate, reference compound], the “Foaming property, result in words” value in data set [2] is “maintains foam for 5 minutes almost constantly”. Besides, the “Foaming property, initial foamability, 0 min.” value in data set [2] came out at 233 mL. Further, the Hard water concentration in data set [4] (stability to hard water) turned out to be 310 ppm. The “Krafft point, when elevating temperature: solution transparent again” value in data set [5] turned out to be 14 °C. In data set [5] (sulfate), the “Krafft point, when lowering (dropping) temperature: cloudiness begins” value is 2˜3 °C and 2 °C and 2-3 °C. For the same compound, the Surface tension was determined as 57.18 mN/m in data set [3] (concentration 0.01%), 25.19 mN/m in data set [3] (concentration 0.1%) and 35.92 mN/m in data set [3] (concentration 1%).

Take `CCCCCCCC[N+](C)(C)CCO` [Synthesis Example 2, N-(dimethyloctylamino)ethanol]: the Solubility entry in data set [6] is “insoluble in acetone”.

Turning to `CC[N+](C)(C)CCO` [Synthesis Example 4, N-(dimethylethylamino)ethanol], the Solubility entry in data set [6] is reported as “soluble in acetone, insoluble in n-hexane”.

Consider `C[N+](C)(C)CCO` [Synthesis Example 5, N-(trimethylamino)ethanol], for which, in data set [6], the Solubility entry is “insoluble in acetone”.

With `C[N+](C)(CCO)CCCCCC[N+](C)(C)CCO.[I-].[I-]` [Synthesis Example 14, 1,6-[2-(N,N-dimethylamino)ethanol]hexane], the “Phase stability” value in data set [1] is given as “transparent”. The “Foaming property, result in words” value in data set [2] is listed as “did not produced foam; also recorded: No foaming”. The Surface tension is 71.41 mN/m in data set [3] (concentration 0.01%), 70.04 mN/m in data set [3] (concentration 0.1%) and 59.49 mN/m in data set [3] (concentration 1%).

Consider `CCCCCCCCCCCC[N+](C)(C)[O-]` [Synthesis Example 19, N-Dimethyl Lauryl Amineoxide], for which, in data set [1], the “Phase stability” value was “transparent”. Further, the “Foaming property, result in words” value in data set [2] is “foam immediately disappeared”. Moreover, the “Foaming property, initial foamability, 0 min.” value in data set [2] was found to be 210 mL. For the same compound, in data set [2] (1 min.), the “Foaming property, 1 min.” value stood at 55 mL. The “Precipitation in hard water” value in data set [4] is listed as “not precipitated”. The Surface tension in data set [3] (concentration 0.001%) is on record as 53.88 mN/m; in data set [3] (concentration 0.01%) it was 31.67 mN/m; in data set [3] (concentration 0.1%), 29.59 mN/m; in data set [3] (concentration 1%) it was 31.94 mN/m.

Regarding `CCCC[N+](C)([O-])CCCCCC[N+](C)([O-])CCCC` (stereo not drawn) [Synthesis Example 23, 16-(N,N-butylmethylamineoxyl)hexane], the “Phase stability” value in data set [1] is on record as “transparent”. In addition, the “Foaming property, result in words” value in data set [2] was “did not produce foam”. Also, the “Precipitation in hard water” value in data set [4] is reported as “not precipitated”. Moreover, the Surface tension in data set [3] (concentration 0.01%) came to 64.05 mN/m; in data set [3] (concentration 0.1%), 56.46 mN/m; in data set [3] (concentration 1%) it was 46.51 mN/m.

In the case of “N-(butyidimethylamino)ethanol [Synthesis Example 3]”, the Solubility entry in data set [6] is given as “insoluble in acetone”.

As for “N-(dimethyldodecylamino ethanol (EO)4 [Synthesis Example 7]”, the Solubility result in data set [6] is on record as “soluble in acetone”.
